# Assay results published in PubChem BioAssay (NCI).
#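 1) Cells in 96-well plates. 2) Compound, 48 h, 5 concentrations. 3) Linear interpolation between surrounding doses. 4) Unreached endpoint = highest concentration. TGI is the concentration that stops growth completely.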
# How the values were obtained:
# Assay in all cases: inhibition of tumour cell growth, NCI panel, 48 h
# NCI-H460 lung = test system: NCI-H460 lung
# NCI-H522 lung = test system: NCI-H522 lung
# MDA-N = test system: MDA-N
# SN12C renal = test system: SN12C renal
# U251 CNS = test system: U251 CNS
# MDA-MB-435 = test system: MDA-MB-435
# MCF7 breast = test system: MCF7 breast
# SK-MEL-5 melanoma = test system: SK-MEL-5 melanoma
# A549 NSCLC = test system: A549 NSCLC
# PC-3 prostate = test system: PC-3 prostate
# SK-OV-3 ovarian = test system: SK-OV-3 ovarian
# DU-145 prostate = test system: DU-145 prostate
# SW-620 colon = test system: SW-620 colon
# TK-10 renal = test system: TK-10 renal
# SR leukemia = test system: SR leukemia
# RXF 393 renal = test system: RXF 393 renal
# OVCAR-4 ovarian = test system: OVCAR-4 ovarian
# CAKI-1 renal = test system: CAKI-1 renal
# COLO 205 colon = test system: COLO 205 colon
# MDA-MB-231 breast = test system: MDA-MB-231 breast
# NCI-H23 lung = test system: NCI-H23 lung
# MOLT-4 leukemia = test system: MOLT-4 leukemia
# CCRF-CEM leukemia = test system: CCRF-CEM leukemia
# EKVX NSCLC = test system: EKVX NSCLC
# SNB-75 CNS = test system: SNB-75 CNS
# ACHN renal = test system: ACHN renal
# HL-60(TB) leukemia = test system: HL-60(TB) leukemia
# HT29 colon = test system: HT29 colon
# OVCAR-8 ovarian = test system: OVCAR-8 ovarian
# SF-268 CNS = test system: SF-268 CNS
# SF-539 CNS = test system: SF-539 CNS
# HCC-2998 colon = test system: HCC-2998 colon
# SK-MEL-28 melanoma = test system: SK-MEL-28 melanoma
# BT-549 breast = test system: BT-549 breast
# MALME-3M melanoma = test system: MALME-3M melanoma
# OVCAR-3 ovarian = test system: OVCAR-3 ovarian
# HCT-116 colon = test system: HCT-116 colon
# A498 renal = test system: A498 renal
# T-47D breast = test system: T-47D breast
# OVCAR-5 ovarian = test system: OVCAR-5 ovarian
# K-562 leukemia = test system: K-562 leukemia
# SNB-19 CNS = test system: SNB-19 CNS
# HOP-92 NSCLC = test system: HOP-92 NSCLC
# M14 melanoma = test system: M14 melanoma
# KM12 colon = test system: KM12 colon
# HS 578T breast = test system: HS 578T breast
# UACC-257 melanoma = test system: UACC-257 melanoma
# NCI-H226 lung = test system: NCI-H226 lung
# UO-31 renal = test system: UO-31 renal
# HOP-62 NSCLC = test system: HOP-62 NSCLC
# IGROV1 ovarian = test system: IGROV1 ovarian
# UACC-62 melanoma = test system: UACC-62 melanoma
# 786-0 renal = test system: 786-0 renal
# SF-295 CNS = test system: SF-295 CNS
# HCT-15 colon = test system: HCT-15 colon
# NCI/ADR-RES ovarian = test system: NCI/ADR-RES ovarian
# SK-MEL-2 melanoma = test system: SK-MEL-2 melanoma
# RPMI-8226 leukemia = test system: RPMI-8226 leukemia
smiles,measurement,setting,value
CC(=O)Oc1ccc2c(c1)CC[C@@H]1C2CC[C@]2(C)C(=O)NC(=O)CC12 (stereo not given in full),TGI,NCI-H460 lung,> 100 µM
same,TGI,NCI-H522 lung,> 100 µM
same,TGI,MDA-N,> 100 µM
same,TGI,SN12C renal,> 100 µM
same,TGI,U251 CNS,> 100 µM
same,TGI,MDA-MB-435,> 100 µM
same,TGI,MCF7 breast,> 100 µM
same,TGI,SK-MEL-5 melanoma,> 100 µM
same,TGI,A549 NSCLC,> 100 µM
same,TGI,PC-3 prostate,> 100 µM
same,TGI,SK-OV-3 ovarian,> 100 µM
same,TGI,DU-145 prostate,> 100 µM
same,TGI,SW-620 colon,> 100 µM
same,TGI,TK-10 renal,> 100 µM
same,TGI,SR leukemia,> 100 µM
same,TGI,RXF 393 renal,> 100 µM
same,TGI,OVCAR-4 ovarian,> 100 µM
same,TGI,CAKI-1 renal,> 100 µM
same,TGI,COLO 205 colon,> 100 µM
same,TGI,MDA-MB-231 breast,> 100 µM
same,TGI,NCI-H23 lung,> 100 µM
same,TGI,MOLT-4 leukemia,> 100 µM
same,TGI,CCRF-CEM leukemia,> 100 µM
same,TGI,EKVX NSCLC,> 100 µM
same,TGI,SNB-75 CNS,> 100 µM
same,TGI,ACHN renal,> 100 µM
same,TGI,HL-60(TB) leukemia,> 100 µM
same,TGI,HT29 colon,> 100 µM
same,TGI,OVCAR-8 ovarian,> 100 µM
same,TGI,SF-268 CNS,> 100 µM
same,TGI,SF-539 CNS,> 100 µM
same,TGI,HCC-2998 colon,> 100 µM
same,TGI,SK-MEL-28 melanoma,> 100 µM
same,TGI,BT-549 breast,> 100 µM
same,TGI,MALME-3M melanoma,> 100 µM
same,TGI,OVCAR-3 ovarian,> 100 µM
same,TGI,HCT-116 colon,> 100 µM
same,TGI,A498 renal,> 100 µM
same,TGI,T-47D breast,> 100 µM
same,TGI,OVCAR-5 ovarian,> 100 µM
same,TGI,K-562 leukemia,> 100 µM
same,TGI,SNB-19 CNS,> 100 µM
same,TGI,HOP-92 NSCLC,> 100 µM
same,TGI,M14 melanoma,> 100 µM
same,TGI,KM12 colon,> 100 µM
same,TGI,HS 578T breast,> 100 µM
same,TGI,UACC-257 melanoma,> 100 µM
same,TGI,NCI-H226 lung,> 100 µM
same,TGI,UO-31 renal,> 100 µM
same,TGI,HOP-62 NSCLC,> 100 µM
same,TGI,IGROV1 ovarian,> 100 µM
same,TGI,UACC-62 melanoma,> 100 µM
same,TGI,786-0 renal,> 100 µM
same,TGI,SF-295 CNS,> 100 µM
Cc1cc2cc3c(cc2c(-c2ccc(N)cc2)n1)OCO3,TGI,NCI-H460 lung,> 100 µM
same,TGI,NCI-H522 lung,> 100 µM
same,TGI,MDA-N,> 100 µM
same,TGI,SN12C renal,> 100 µM
same,TGI,U251 CNS,> 100 µM
same,TGI,MDA-MB-435,> 100 µM
same,TGI,MCF7 breast,53.6 µM
same,TGI,SK-MEL-5 melanoma,71.9 µM
same,TGI,A549 NSCLC,> 100 µM
same,TGI,PC-3 prostate,> 100 µM
same,TGI,SK-OV-3 ovarian,> 100 µM
same,TGI,HCT-15 colon,> 100 µM
same,TGI,DU-145 prostate,> 100 µM
same,TGI,SW-620 colon,> 100 µM
same,TGI,TK-10 renal,> 100 µM
same,TGI,SR leukemia,52.5 µM
same,TGI,CAKI-1 renal,75.4 µM
same,TGI,COLO 205 colon,88.5 µM
same,TGI,MDA-MB-231 breast,> 100 µM
same,TGI,NCI-H23 lung,> 100 µM
same,TGI,MOLT-4 leukemia,39.6 µM
same,TGI,CCRF-CEM leukemia,> 100 µM
same,TGI,NCI/ADR-RES ovarian,> 100 µM
same,TGI,EKVX NSCLC,> 100 µM
same,TGI,ACHN renal,> 100 µM
same,TGI,HL-60(TB) leukemia,47.3 µM
same,TGI,HT29 colon,62.2 µM
same,TGI,OVCAR-8 ovarian,> 100 µM
same,TGI,SF-268 CNS,79.3 µM
same,TGI,SK-MEL-2 melanoma,> 100 µM
same,TGI,SF-539 CNS,> 100 µM
same,TGI,BT-549 breast,> 100 µM
same,TGI,MALME-3M melanoma,> 100 µM
same,TGI,OVCAR-3 ovarian,67.9 µM
same,TGI,RPMI-8226 leukemia,73.7 µM
same,TGI,HCT-116 colon,> 100 µM
same,TGI,T-47D breast,> 100 µM
same,TGI,OVCAR-5 ovarian,> 100 µM
same,TGI,K-562 leukemia,92 µM
same,TGI,SNB-19 CNS,> 100 µM
same,TGI,HOP-92 NSCLC,75.4 µM
same,TGI,M14 melanoma,> 100 µM
same,TGI,KM12 colon,> 100 µM
same,TGI,HS 578T breast,> 100 µM
same,TGI,UACC-257 melanoma,> 100 µM
same,TGI,UO-31 renal,> 100 µM
same,TGI,HOP-62 NSCLC,> 100 µM
same,TGI,IGROV1 ovarian,59.5 µM
same,TGI,UACC-62 melanoma,> 100 µM
same,TGI,786-0 renal,57.4 µM
same,TGI,SF-295 CNS,> 100 µM
